Molecules are shown by their SMILES.

Results on 1 molecule are retold here after PMC11403612, “Preparation and Preclinical Characterization of a Simple Ester for Dual Exogenous Supply of Lactate and Beta-hydroxybutyrate” (Journal of Agricultural and Food Chemistry, 2024).

The nature of this series: Microsomal stability of LaKe, human. Format: in vitro ADME. Here is the method: The in vitro stability of LaKe was evaluated following incubation in simulated gastric fluid (SGF), simulated intestinal fluid (SIF), fresh and frozen plasma (rats and humans, respectively), and the presence of hepatocytes (rats and humans) and liver microsomes (rats and humans). At the chosen time points, the mixtures were analyzed by LC-MS/MS to quantify the remaining LaKe and all assays included at least one control compound with known pharmacokinetic properties.
Hepatocyte stability of LaKe
Cells: Rat hepatocytes (BioreclamationIVT, M0005); Human hepatocytes (BioreclamationIVT, X008001) Thawing Medium: Williams’ Medium E containing 5% fetal bovine serum and 30% Percoll solution and other […]
Incubation Medium: Williams’ Medium E (no phenol red) containing 2 mM L-Glutamine and 25 mM HEPES.
Stop Solution: Acetonitrile containing 200 ng/mL tolbutamide and labetalol as internal standards.
Dilution Solution: Ultra-pure water.
Preparation of Quenching Plate: Transfer 125 μL of stop solution (acetonitrile containing 200 ng/mL tolbutamide and 200 ng/mL labetalol as internal standards) in a set of pre-labeled 96-well plates.
Cryopreserved cells were thawed, isolated and suspended in Incubation Medium, then diluted with pre-warmed Incubation Medium to 0.5 × 10^6 cells/mL. 198 μL of pre-warmed cell suspensions were added in 96-well plates. […]

`CC(O)CCOC(=O)C(C)O` (centres unmarked) [LaKe, 3-hydroxybutyl 2-hydroxypropanoate] showed a LaKe remaining (human liver microsomes, absence of NADPH, after 60 min) of 82%. For the same molecule, the “turnover in liver microsomes” value (presence of NADPH) is “underwent turnover”.
